We go through two compounds from US20230338531A1, “COMPOSITIONS AND USES OF CD45 TARGETED CHIMERIC ANTIGEN RECEPTOR MODIFIED T CELLS” (City of Hope, priority 2020, published 2023).

One data set has as its system PTPRC (CD45) gene. The data set is described as follows: CD45 protein expression after PTPRC (CD45) gene knockout by CRISPR/Cas9. It is filed as cell-based. To be noted: T cells after CRISPR/cas9 mediated CD45KO vs wild type. The source says:
FIGS. 11A-11B show CD45 protein expression profile after PTPRC (CD45) gene knockout by CRISPR/Cas9 gene editing.
Cell Isolation, CD45 gene editing, CD45-CAR Lentiviral Transduction, and Ex Vivo Expansion_Leukapheresis products were obtained from consented research participants (healthy donors) under protocols approved by the City of Hope Internal Review Board (IRB). On the day of leukapheresis, peripheral blood mononuclear cells (PBMC) were isolated by density gradient centrifugation over Ficoll-Paque (GE Healthcare) followed by multiple washes in PBS/EDTA (Miltenyi Biotec). Cells were rested overnight at room temperature (RT) on a rotator, and subsequently washed and resuspended in X-VIVO T cell medium (Lonza) containing 10% FBS (complete X-VIVO). Up to 5.0×10^9 PBMC were incubated with anti-CD14 and anti-CD25 microbeads (Miltenyi Biotec) for 30 min at RT and magnetically depleted using the CliniMACS® system (Miltenyi Biotec) according to the manufacturer's protocol and these were termed depleted PBMCs (dPBMC). dPBMC were frozen in CryoStor® CS5 (StemCell Technologies) until further processing. […]
Experiments were then conducted to quantify the CD45 protein expression on wild type and CD45 knock out T cells after PTPRC (CD45) gene knockout by CRISPR/Cas9 gene editing. hCD45gRNA #3_E12, […] […]

For data set [1], the system named is iCasp9-CD45-CAR lentivirus transduced HT1080 cells. Nature of the data set: Induced cell depletion by iCasp9 safety switch. To be noted: 100 μM, 24h, normalized to non-treated group. Type of data set: cell-based. As for the experimental part: To test the effects of a suicide switch as a safety precaution, experiments were conducted to investigate the induced cell depletion effect of rimiducid on iCasp9-CD45-CAR lentivirus transduced cells. iCasp9 can be activated by a specific chemical inducer of dimerization (CID) such as rimiducid, leading to efficient elimination of iCasp9 engineered cell.
The order of iCaspase 9 and CD45 scFv components can be switched (e.g., promoter-CD45CAR-T2A-iCaspase9-etc). HT1080 cells were transduced by lentivirus. […] Transduced HT1080 cells were seeded in 24 well plate and treated with 100 μM ramiducid for 24h normalized and compared to non-treated group, and the relative survival cell number was quantified (FIG. 10C). Treating the iCasp9-CD45-CAR cells with ramiducid reduced cell survival to 36% (FIG. 10C).

Turning to “CUUCUACAAAAAAUAAUCUG (SEQ ID NO: 39) (listed as RNA, chemistry not given here) [hCD45gRNA #3_E12, gRNA targeting PTPRC exon 12]”, in the data set with PTPRC (CD45) gene, the “CD45 expression (flow cytometry, MFI)” value was “decreasing expression of CD45”.

On to `CC[C@H](C(=O)N1CCCC[C@H]1C(=O)O[C@H](CCc1ccc(OC)c(OC)c1)c1cccc(OCC(=O)NCCNC(=O)COc2cccc([C@@H](CCc3ccc(OC)c(OC)c3)OC(=O)[C@@H]3CCCCN3C(=O)[C@@H](CC)c3cc(OC)c(OC)c(OC)c3)c2)c1)c1cc(OC)c(OC)c(OC)c1` [ramiducid], for which, in data set [1], the “relative survival cell number” value was 36%.
